Assay results published in US20250082565A1, “ANTIOXIDANT COSMETIC COMPLEX, COSMETIC COMPOSITION, USE AND METHOD FOR COSMETIC TREATMENT” (Natura Cosméticos S.A., priority 2023, published 2025).

Assays:
[1] = Suppression of triplet species (laser flash photolysis); settings: Stern-Volmer model; 10 μM methylene blue, excitation 660 nm, argon purged; individual actives
Experimental: (§1) The excited state suppression ability was assessed by measuring the transient absorption of triplet states using flash photolysis and by singlet oxygen emission in the near infrared.
Triplet suppression: The SHB Laser Flash Photolysis system was used (FIG. 14). A laser pulse (10 mJ/pulse, 10-20 ns) impinges on the sample providing electronic excitation. To assess the formation and the lifetime of excited states or other reactive intermediates, the change in absorbance prior to and after electronic excitation of the sample is monitored by an optical beam (LED) as a function of time. It monitors the disappearance of the species in the fundamental state or the appearance of the excited or radical species. The laser beam is positioned at 90° to the monitoring beam. Shutters are used in both the excitation and monitoring beams to protect the sample from photolysis. The detector in this technique consists of a combination of filters and diode detector. The diode response is read on a digital oscilloscope (Tektronix 2230), which data is subsequently transferred to the microcomputer. The entire equipment is controlled by a microcomputer and the time resolution of the instrument is of about 50 ns. A Quantel Nd: YAG laser (2 w, 3 w Rainbow, pulsed at 3 ns, 80.1% power) was used. […] Readings were taken in a 2 mm×10 mm quartz cuvette. […]

[2] = Singlet oxygen suppression (emission at 1270 nm); settings: Stern-Volmer model; phosphorescence at 1270 nm in ethanol
Experimental: as §1
Singlet oxygen suppression: The detector (PMT Hamamatsu R5509—model PC176TSCE005) was cooled to −80° C. and set to 1500 V and the signals were acquired using a proprietary software from SHB Analytics GmbH (Germany). Excitation was performed by a Quantel Brilliant laser (2 w-3 w-Rainbow). Emission from the sample is filtered so that irradiation in the range of from […] is detected. A microcomputer is connected to the system and analysis of the transients is carried out using an ultra-fast acquisition plate. It is important to remember that luminescence emission at 1270 nm is characteristic of singlet oxygen, being the safest method of detecting the presence and reactivity of this species. […]
To assess the actives' ability of suppressing singlet oxygen (1O2), the near-infrared emission (1270 nm) was measured, which is characteristic of 1O2 and a golden standard for this detection. […]
The detector (PMT Hamamatsu-model H10330-45) was cooled to −80° C. and set to −800 V and the signals were acquired using a proprietary software from SHB Analytics GmbH (Germany). […] Sample emission is detected in the range of 1270±20 nm. […]

## CC1=C(/C=C/C(C)=C/C=C/C(C)=C/C=C/C=C(C)/C=C/C=C(C)/C=C/C2=C(C)CCCC2(C)C)C(C)(C)CCC1 [Beta-carotene]
[1]
  KSt (triplet suppression constant): 0.16 ± 0.05 μg^−1μL
[2]
  KSV (singlet oxygen suppression constant): 30.5 × 10^4 mg^−1mLs^−1
